# Assays:
# Details in all cases: Compound concentration 10.0 uM
# [1] = biological target: Beta-1 adrenergic receptor (Homo sapiens) (UniProt P08588)
# [2] = biological target: T1, Activin receptor type-1B (Homo sapiens) (UniProt P36896)
# T1 sequence (whole entry): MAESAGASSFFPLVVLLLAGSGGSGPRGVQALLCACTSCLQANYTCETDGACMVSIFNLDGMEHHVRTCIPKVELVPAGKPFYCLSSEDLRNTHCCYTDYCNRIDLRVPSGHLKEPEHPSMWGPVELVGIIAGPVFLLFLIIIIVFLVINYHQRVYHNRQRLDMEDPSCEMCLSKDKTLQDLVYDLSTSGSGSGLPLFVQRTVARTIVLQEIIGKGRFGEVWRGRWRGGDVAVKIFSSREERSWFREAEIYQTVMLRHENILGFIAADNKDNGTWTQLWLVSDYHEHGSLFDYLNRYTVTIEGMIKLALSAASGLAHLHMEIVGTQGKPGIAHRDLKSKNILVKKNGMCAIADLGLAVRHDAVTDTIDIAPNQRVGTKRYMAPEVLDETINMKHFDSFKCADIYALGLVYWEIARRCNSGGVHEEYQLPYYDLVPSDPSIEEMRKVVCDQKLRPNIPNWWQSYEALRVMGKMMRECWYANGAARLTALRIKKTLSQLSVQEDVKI
# [3] = biological target: RAC-alpha serine/threonine-protein kinase (Homo sapiens) (UniProt P31749)
# [4] = biological target: Tyrosine-protein kinase BTK (Homo sapiens) (UniProt Q06187)
# [5] = biological target: Cyclin-dependent kinase 2/cyclin A (Homo sapiens) (UniProt P24941+P20248+P78396)
# [6] = biological target: Casein kinase I isoform gamma-2 (Homo sapiens) (UniProt P78368)
# [7] = biological target: Dual specificity tyrosine-phosphorylation-regulated kinase 3 (Homo sapiens) (UniProt O43781)
# [8] = biological target: Fibroblast growth factor receptor 1 (Homo sapiens) (UniProt P11362)
# [9] = biological target: Receptor-type tyrosine-protein kinase FLT3 (Homo sapiens) (UniProt P36888)
# [10] = biological target: Glycogen synthase kinase-3 beta (Homo sapiens) (UniProt P49841)
# [11] = biological target: Insulin-like growth factor 1 receptor (Homo sapiens) (UniProt P08069)
# [12] = biological target: Insulin receptor (Homo sapiens) (UniProt P06213)
# [13] = biological target: Vascular endothelial growth factor receptor 2 (Homo sapiens) (UniProt P35968)
# [14] = biological target: Dual specificity mitogen-activated protein kinase kinase 1 (Homo sapiens) (UniProt Q02750)
# [15] = biological target: Mitogen-activated protein kinase 1 (Homo sapiens) (UniProt P28482)
# [16] = biological target: Mitogen-activated protein kinase 8 (Homo sapiens) (UniProt P45983)
# [17] = biological target: MAP kinase-activated protein kinase 2 (Homo sapiens) (UniProt P49137)
# [18] = biological target: High affinity nerve growth factor receptor (Homo sapiens) (UniProt P04629)
# [19] = biological target: Serine/threonine-protein kinase PLK1 (Homo sapiens) (UniProt P53350)
# [20] = biological target: cAMP-dependent protein kinase catalytic subunit alpha (Homo sapiens) (UniProt P17612)
# [21] = biological target: Proto-oncogene tyrosine-protein kinase receptor Ret (Homo sapiens) (UniProt P07949)
# [22] = biological target: Proto-oncogene tyrosine-protein kinase Src (Homo sapiens) (UniProt P12931)
# [23] = biological target: Angiopoietin-1 receptor (Homo sapiens) (UniProt Q02763)
# Chain of RAC-alpha serine/threonine-protein kinase (Homo sapiens) (P31749 whole entry): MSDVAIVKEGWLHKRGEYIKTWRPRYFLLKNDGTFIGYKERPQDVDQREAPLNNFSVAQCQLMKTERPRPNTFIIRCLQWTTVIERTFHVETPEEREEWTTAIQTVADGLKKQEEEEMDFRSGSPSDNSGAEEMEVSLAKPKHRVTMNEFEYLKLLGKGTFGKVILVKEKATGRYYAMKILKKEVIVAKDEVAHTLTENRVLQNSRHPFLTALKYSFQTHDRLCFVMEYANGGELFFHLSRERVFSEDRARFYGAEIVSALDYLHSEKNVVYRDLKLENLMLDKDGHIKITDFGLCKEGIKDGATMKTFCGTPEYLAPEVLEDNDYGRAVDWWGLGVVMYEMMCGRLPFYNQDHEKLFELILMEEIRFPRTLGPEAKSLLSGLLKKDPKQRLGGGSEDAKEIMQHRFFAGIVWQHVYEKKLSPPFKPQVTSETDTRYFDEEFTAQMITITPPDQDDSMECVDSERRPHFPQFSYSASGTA
# Chain of Mitogen-activated protein kinase 1 (Homo sapiens) (P28482 whole entry): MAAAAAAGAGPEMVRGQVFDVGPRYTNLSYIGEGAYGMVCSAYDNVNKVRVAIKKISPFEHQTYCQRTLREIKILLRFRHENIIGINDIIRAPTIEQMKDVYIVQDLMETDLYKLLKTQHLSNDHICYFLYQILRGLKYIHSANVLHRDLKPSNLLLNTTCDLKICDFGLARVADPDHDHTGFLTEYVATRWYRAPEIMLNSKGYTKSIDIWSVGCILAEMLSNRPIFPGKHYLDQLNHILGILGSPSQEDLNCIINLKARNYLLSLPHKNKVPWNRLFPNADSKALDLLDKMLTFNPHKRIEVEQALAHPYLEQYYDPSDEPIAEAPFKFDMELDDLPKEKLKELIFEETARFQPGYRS
# Chain of Fibroblast growth factor receptor 1 (Homo sapiens) (P11362 22-822 limits assumed): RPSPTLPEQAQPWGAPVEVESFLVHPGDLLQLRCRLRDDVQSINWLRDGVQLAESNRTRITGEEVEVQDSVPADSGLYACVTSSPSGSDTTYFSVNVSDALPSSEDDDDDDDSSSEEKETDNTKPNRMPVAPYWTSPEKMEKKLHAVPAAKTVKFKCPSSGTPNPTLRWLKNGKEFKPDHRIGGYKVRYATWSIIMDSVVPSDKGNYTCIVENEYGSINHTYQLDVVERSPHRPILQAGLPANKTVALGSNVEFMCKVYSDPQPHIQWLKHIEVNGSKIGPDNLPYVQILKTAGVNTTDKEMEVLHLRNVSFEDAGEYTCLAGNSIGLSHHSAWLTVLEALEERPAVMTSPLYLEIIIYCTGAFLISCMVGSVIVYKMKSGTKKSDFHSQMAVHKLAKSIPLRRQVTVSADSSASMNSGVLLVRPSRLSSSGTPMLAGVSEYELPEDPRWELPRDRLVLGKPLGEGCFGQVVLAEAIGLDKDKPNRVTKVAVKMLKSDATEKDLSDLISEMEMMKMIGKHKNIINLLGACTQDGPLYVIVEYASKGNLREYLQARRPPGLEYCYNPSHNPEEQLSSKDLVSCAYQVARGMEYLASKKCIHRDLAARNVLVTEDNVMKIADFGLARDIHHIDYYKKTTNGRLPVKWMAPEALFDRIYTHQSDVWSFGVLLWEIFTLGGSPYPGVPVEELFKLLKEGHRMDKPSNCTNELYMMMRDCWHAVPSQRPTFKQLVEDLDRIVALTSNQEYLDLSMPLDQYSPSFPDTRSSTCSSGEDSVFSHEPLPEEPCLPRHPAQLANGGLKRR
# Chain of Proto-oncogene tyrosine-protein kinase Src (Homo sapiens) (P12931 2-536 limits assumed): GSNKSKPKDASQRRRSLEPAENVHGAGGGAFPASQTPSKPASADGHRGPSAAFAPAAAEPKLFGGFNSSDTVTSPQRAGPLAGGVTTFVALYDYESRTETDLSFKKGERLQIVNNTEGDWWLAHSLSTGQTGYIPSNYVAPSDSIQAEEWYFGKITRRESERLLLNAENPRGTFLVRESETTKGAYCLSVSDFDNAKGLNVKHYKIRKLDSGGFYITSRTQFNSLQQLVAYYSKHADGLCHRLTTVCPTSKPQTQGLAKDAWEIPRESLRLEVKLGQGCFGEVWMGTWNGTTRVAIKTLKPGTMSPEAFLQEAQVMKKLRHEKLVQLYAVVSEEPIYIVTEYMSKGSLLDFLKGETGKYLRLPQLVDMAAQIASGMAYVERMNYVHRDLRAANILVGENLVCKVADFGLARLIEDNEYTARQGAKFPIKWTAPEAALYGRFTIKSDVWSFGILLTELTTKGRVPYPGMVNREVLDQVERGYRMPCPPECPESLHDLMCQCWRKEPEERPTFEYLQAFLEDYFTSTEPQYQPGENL
# Chain of High affinity nerve growth factor receptor (Homo sapiens) (P04629 33-796 limits assumed): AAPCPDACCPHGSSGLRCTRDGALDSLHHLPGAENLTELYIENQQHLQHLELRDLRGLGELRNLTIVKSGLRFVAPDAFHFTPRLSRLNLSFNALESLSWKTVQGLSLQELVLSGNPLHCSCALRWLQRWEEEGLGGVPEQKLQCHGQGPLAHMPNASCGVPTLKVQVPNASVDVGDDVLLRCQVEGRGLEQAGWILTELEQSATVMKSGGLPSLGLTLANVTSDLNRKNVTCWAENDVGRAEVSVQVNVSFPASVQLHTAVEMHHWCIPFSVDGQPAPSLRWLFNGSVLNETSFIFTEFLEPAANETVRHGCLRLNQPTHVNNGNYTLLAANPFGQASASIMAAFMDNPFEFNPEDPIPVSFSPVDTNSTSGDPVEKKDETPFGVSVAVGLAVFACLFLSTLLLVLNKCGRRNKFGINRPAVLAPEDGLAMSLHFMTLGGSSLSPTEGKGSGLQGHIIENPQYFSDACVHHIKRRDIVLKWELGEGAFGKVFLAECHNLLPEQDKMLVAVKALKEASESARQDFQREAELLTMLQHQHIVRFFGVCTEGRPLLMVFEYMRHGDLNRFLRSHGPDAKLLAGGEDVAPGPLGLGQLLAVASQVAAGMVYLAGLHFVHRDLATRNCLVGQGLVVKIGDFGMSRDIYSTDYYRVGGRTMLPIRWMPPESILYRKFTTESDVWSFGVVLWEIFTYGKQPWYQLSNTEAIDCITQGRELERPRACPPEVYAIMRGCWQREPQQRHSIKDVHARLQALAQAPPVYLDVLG
# Chain of Glycogen synthase kinase-3 beta (Homo sapiens) (P49841 whole entry, looked up): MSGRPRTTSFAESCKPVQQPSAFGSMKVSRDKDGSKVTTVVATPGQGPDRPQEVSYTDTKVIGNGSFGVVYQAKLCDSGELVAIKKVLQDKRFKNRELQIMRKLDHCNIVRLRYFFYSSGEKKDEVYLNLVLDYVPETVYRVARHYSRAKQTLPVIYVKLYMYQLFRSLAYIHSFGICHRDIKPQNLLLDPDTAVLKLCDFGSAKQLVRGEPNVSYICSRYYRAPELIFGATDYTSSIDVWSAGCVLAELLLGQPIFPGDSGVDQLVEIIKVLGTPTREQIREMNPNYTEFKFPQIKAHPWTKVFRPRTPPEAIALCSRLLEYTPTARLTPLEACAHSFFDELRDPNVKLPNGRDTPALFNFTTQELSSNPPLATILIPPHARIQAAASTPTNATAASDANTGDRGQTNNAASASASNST
# Chain of Mitogen-activated protein kinase 8 (Homo sapiens) (P45983 whole entry): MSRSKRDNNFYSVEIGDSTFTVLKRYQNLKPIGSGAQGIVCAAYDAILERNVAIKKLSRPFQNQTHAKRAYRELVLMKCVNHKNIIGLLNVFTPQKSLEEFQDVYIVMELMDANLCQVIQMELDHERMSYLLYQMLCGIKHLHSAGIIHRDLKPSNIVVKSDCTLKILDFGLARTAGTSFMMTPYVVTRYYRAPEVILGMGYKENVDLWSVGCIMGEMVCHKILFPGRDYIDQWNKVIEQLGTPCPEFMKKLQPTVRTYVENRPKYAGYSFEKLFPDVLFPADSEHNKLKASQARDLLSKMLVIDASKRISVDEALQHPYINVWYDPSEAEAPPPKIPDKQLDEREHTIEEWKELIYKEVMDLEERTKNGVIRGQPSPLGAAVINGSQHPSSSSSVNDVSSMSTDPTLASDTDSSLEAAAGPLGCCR
# Chain of Casein kinase I isoform gamma-2 (Homo sapiens) (P78368 whole entry, looked up, canonical isoform): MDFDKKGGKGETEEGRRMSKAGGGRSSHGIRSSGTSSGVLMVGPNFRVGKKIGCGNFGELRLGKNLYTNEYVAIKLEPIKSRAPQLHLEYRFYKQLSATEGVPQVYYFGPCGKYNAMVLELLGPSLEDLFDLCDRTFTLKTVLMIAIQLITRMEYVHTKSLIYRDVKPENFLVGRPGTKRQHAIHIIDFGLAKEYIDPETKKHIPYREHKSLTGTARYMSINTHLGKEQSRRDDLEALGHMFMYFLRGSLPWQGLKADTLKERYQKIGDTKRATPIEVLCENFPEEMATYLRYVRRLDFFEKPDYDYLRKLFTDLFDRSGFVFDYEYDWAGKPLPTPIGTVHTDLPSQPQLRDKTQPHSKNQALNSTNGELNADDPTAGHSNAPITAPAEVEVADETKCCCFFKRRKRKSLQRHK
# Chain of Serine/threonine-protein kinase PLK1 (Homo sapiens) (P53350 whole entry): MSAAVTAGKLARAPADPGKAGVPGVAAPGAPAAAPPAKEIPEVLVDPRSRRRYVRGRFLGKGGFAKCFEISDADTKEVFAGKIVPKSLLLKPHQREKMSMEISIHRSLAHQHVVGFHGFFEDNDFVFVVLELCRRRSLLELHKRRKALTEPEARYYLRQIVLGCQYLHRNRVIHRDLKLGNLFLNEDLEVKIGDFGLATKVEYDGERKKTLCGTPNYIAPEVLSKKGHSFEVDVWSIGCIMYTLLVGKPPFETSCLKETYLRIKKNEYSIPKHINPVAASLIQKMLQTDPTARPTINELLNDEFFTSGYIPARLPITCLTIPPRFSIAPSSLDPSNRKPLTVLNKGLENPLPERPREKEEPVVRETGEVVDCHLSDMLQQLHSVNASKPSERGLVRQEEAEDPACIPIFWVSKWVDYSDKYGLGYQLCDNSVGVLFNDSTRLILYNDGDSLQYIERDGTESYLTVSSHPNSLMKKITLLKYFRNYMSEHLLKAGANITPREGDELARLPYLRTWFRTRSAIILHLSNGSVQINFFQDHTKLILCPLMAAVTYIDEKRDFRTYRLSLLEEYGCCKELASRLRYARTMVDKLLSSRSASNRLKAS
structure (smiles),measurement,setting,value
CCOC(=O)c1cc2cc(-c3cc(C(=O)NCc4ccc(C(=O)O)cc4)nn3C)ccc2[nH]1 [BI 4394],inhibition,[1],-5.04%
same,residual activity,[2],100%
same,residual activity,[3],24%
same,residual activity,[4],68%
same,residual activity,[5],93%
same,residual activity,[6],61%
same,residual activity,[7],28%
same,residual activity,[8],94%
same,residual activity,[9],64%
same,residual activity,[10],6%
same,residual activity,[11],88%
same,residual activity,[12],98%
same,residual activity,[13],17%
same,residual activity,[14],78%
same,residual activity,[15],84%
same,residual activity,[16],87%
same,residual activity,[17],1%
same,residual activity,[18],190%
same,residual activity,[19],73%
same,residual activity,[20],10%
same,residual activity,[21],64%
same,residual activity,[22],25%
same,residual activity,[23],85%

# — ChEMBL document CHEMBL4507281, “Data for DCP probe BI-4394” (2021)
